The values below come from patent US11208382B2, “Entinostat-containing compound, crystal form of compound thereof, and preparation method therefor and pharmaceutical composition thereof” (Hangzhou SoliPharma Co., Ltd., priority 2017, dated 2021).

Assay type in all cases: physicochemical
A short description of data set [1]: apparent water solubility test. The note with it: for solubility at 3 min: thermodynamic from solid, apparent water solubility, water bath 25° C.±2° C., visual check for clear solution. The method, then:
Entinostat, Compound A and Compound B in the present invention were tested for the apparent water solubility, and the operations were as follows:
Placed 3 mg of sample in a 100 mL Erlenmeyer flask in a water bath at 25° C.±2° C., added water by doubling, stirred at about 200 rpm/min, checked visually if the solution was clear. The interval between each addition of water was 3 minutes, and the maximum amount of water to add was 60 mL.

Data set [2] is described as follows: phase stability test of the crystalline forms. The note with it: for phases after storage: stored at room temperature and high temperature for 14 days. The method, then:
X-ray powder diffraction (XRPD): performed on Bruker D8 Advance diffractometer. The scan range 3-40° 20, step size 0.02020, and speed 0.2 s/step. Appropriate amounts of Crystalline Form of Compound A and Crystalline Form of Compound B in the present invention were used respectively for the phase stability test. The conditions were room temperature and high temperature (50° C.).

Data set [3] in a line: chemical stability test by HPLC analysis. The protocol:
HPLC data were collected on Ultimate 3000 under the following conditions: column, YMC-Pack ODS-AQ (4.6*250 mm*5 μm); column temperature, 40° C.; flow rate, 1.5 mL/min; detection wavelength, 254 nm; injection volume 3 uL; operation time, 40 min; mobile phase, a mixture of acetonitrile: 10 mM monopotassium phosphate=1:2. 1. Appropriate amounts of entinostat and Compound A in the present invention were used respectively for HPLC analysis, the purity of the compounds and the maximum single impurity (RRT=1.403) were calculated. 2. Chemical stability tests of entinostat and Compound A in the present invention were performed. The conditions were as follows: room temperature, high temperature (40° C.), high humidity (75% RH), and acceleration (40° C.-75% RH), and the storage time is 14 days. Using HPLC analysis, the change of maximum single impurity (RRT=1.403), the change of the main ingredient level and the change of total impurities number were studied.

The mark [4] stands for this setting: High temperature (50° C.), 7 days.
Setting [5] is: High temperature (50° C.), 14 days.
[6] abbreviates: High temperature (40° C.), 14 days, first line so headed (r10).
The mark [7] stands for this setting: High temperature, 14 days, second line so headed (r12).
Setting [8] is: Speeded-up (acceleration, 40° C.-75% RH), 14 days.
The mark [9] stands for this setting: High temperature (40° C.), 14 days, first line so headed (r10), listed as Entinostat.
Where [10] appears, read: High temperature, 14 days, second line so headed (r12), listed as Entinostat.
Setting [11] is: Room temperature, 0 days, listed as Entinostat.
[12] abbreviates: Room temperature, 14 days, listed as Entinostat.
[13] abbreviates: Speeded-up (acceleration, 40° C.-75% RH), 14 days, listed as Entinostat.

Turning to `Nc1ccccc1NC(=O)c1ccc(CNC(=O)OCc2cccnc2)cc1` [polymorph A, N-(2-aminophenyl)-4-[N-(pyridin-3-yl)methoxycarbonyllaminomethyl]benzamide], in data set [1] (finding of the inventors on prior-art polymorphs, no method given), the “solubility in water (in words)” value is given as “low”.

By solubility is commonly meant how much of the substance goes into solution per volume. For `Nc1ccccc1NC(=O)c1ccc(CNC(=O)OCc2cccnc2)cc1.O=C(O)/C=C\C(=O)O` [Compound B], the “Crystal form after storage” value in data set [2] (setting [4]) is “unchanged”; in data set [2] (setting [5]), “unchanged”; in data set [2] (Room temperature, 7 days), “unchanged”; in data set [2] (Room temperature, 14 days) it was “unchanged”. Moreover, in data set [2], the “phases after storage” value was “unchanged”. Moreover, in data set [1], the solubility at 3 min stood at 1010 µg/mL.

Turning to `Nc1ccccc1NC(=O)c1ccc(CNC(=O)OCc2cccnc2)cc1` [Compound A], the “Crystal form after storage” value in data set [2] (setting [4]) was “unchanged”; in data set [2] (setting [5]) it was “unchanged”; in data set [2] (Room temperature, 7 days), “unchanged”; in data set [2] (Room temperature, 14 days), “unchanged”. In data set [2], the “phases after storage” value is “unchanged”. The “Main ingredient (%)” value in data set [3] (setting [6]) is on record as 99.9%; in data set [3] (setting [7]), 99.9%; in data set [3] (Room temperature, 0 days), 99.9%; in data set [3] (Room temperature, 14 days), 99.9%; in data set [3] (setting [8]), 99.9%. Besides, the “Number of impurities (≥0.04%)” value in data set [3] (setting [6]) turned out to be 0; in data set [3] (setting [7]) it was 0; in data set [3] (Room temperature, 0 days), 0; in data set [3] (Room temperature, 14 days), 0; in data set [3] (setting [8]) it was 0. For the same compound, the “RRT = 1.403 (%) maximum single impurity” value in data set [3] (setting [6]) is 0.11%; in data set [3] (setting [7]), 0.11%; in data set [3] (Room temperature, 0 days), 0.12%; in data set [3] (Room temperature, 14 days), 0.13%; in data set [3] (setting [8]), 0.13%.

Regarding `Nc1ccccc1NC(=O)c1ccc(CNC(=O)OCc2cccnc2)cc1` [entinostat, N-(2-aminophenyl)-4-[N-(pyridin-3-yl)methoxycarbonyllaminomethyl]benzamide], the solubility at 3 min in data set [1] was less than 50 µg/mL. For the same compound, in data set [3] (14 days under room temperature, high temperature, high humidity and acceleration), the “impurity at RRT=1.403, main ingredient and number of impurities after storage” value is “essentially unchanged”. The “Main ingredient (%)” value in data set [3] (setting [9]), in data set [3] (setting [10]), in data set [3] (setting [11]), in data set [3] (setting [12]) and in data set [3] (setting [13]) was 98.4% throughout. Moreover, the “Number of impurities (≥0.04%)” value in data set [3] (setting [9]) came to 5; in data set [3] (setting [10]) it was 5; in data set [3] (setting [11]), 4; in data set [3] (setting [12]), 4; in data set [3] (setting [13]) it was 5. Also, the “RRT = 1.403 (%) maximum single impurity” value in data set [3] (setting [9]) amounted to 1.44%; in data set [3] (setting [10]) it was 1.43%; in data set [3] (setting [11]), 1.42%; in data set [3] (setting [12]), 1.42%; in data set [3] (setting [13]), 1.41%.
